The record followed here is patent EP0276583A1, “Imidazole derivatives, processes for their preparation and their fungicidal properties” (Instituto de Investigacion Y Desarrollo Quimico Biologico …, priority 1987, dated 1988).

A short description of data set [1]: Solubility of the product in solvents. It counts as physicochemical. Conditions: free base (oily product).
Data set [2] deals with souris Swiss. The data set is described as follows: Acute oral toxicity in mice (Lichfield and Wilcoxon method). Particulars: mortality over 7 days. It counts as in vivo. An excerpt: La toxicité aiguë des composés de l'invention a été déterminée par voie orale chez les souris Swiss des deux sexes, par la méthode de Lichfield et Wilcoxon. Des groupes de cinq souris de chaque sexe ont été traités par des doses croissantes du composé étudié et le taux de mortalité a été déterminé au cours des 7 jours suivant l'administration du produit.
On a trouvé les doses léthales (DL₅₀ en mg/kg) suivantes : […]

The mark [3] stands for this setting: in benzène, éthanol, acétone, chloroforme.
Setting [4] is: in eau, n-hexane, éther isopropylique, éther éthylique.

Take `Brc1ccc(C(Cn2ccnc2)c2ccccc2)cc1` (centres unmarked) [Exemple 1, 1-[2-(4-bromophényl)-2-phényléthyl]-1H-imidazole]: the results for the solubilité entry in data set [1] (setting [3]) and in data set [1] (setting [4]) were “soluble” and “insoluble”, respectively. The results for the DL₅₀ in data set [2] (souris femelle) and in data set [2] (souris mâle) were 375 (350-400) mg/kg and 450 (400-475) mg/kg, respectively.
On the same counts, the results for `Fc1ccc(C(Cn2ccnc2)c2ccccc2)cc1` (centres unmarked) [Exemple 2, 1-[2-(4-fluorophényl)-2-phényl éthyl]-1H-imidazole] are “soluble”, “insoluble”, 465 (438-502) mg/kg and 524 (457-538) mg/kg.
